{
  "source": "patent US20260191845A1",
  "about": "“PYRIDINE-2-THIOL 1-OXIDE DERIVATIVES AND THEIR USE FOR TREATMENT OF MAMMALIAN INFECTIONS CAUSED BY MYCOBACTERIUM OR FUNGI” (priority 2022, published 2026)",
  "key": {"[1]": {"tested_on": "M. avium subsp. avium Chester ATCC15769", "assay": "REMA MIC90, broad spectrum of microorganisms", "type": "cell-based", "conditions": "Mycobacterium avium, M. avium subsp. avium Chester ATCC15769, Wild-type, read-out: MIC to Compound 2"}, "[2]": {"tested_on": "Sporobolomyces salmonicolor", "assay": "Antifungal agar well diffusion assay", "conditions": "20 μL water solution in 4 mm well", "protocol": "(§1) The well diffusion test was performed using Casitone agar. The inoculum used was prepared using the Candida or Aspergillus strains from a 24-hour culture on Sabouraud dextrose agar, a suspension was made in a sterile saline solution (0.85%). The turbidity of the suspension was adjusted with a spectrophotometer at 530 nm to obtain a final concentration to match that of a 0.5 McFarland standard (0.5-2.5×10^3). 20 mL of Bacto-casitone were melted, cooled to 55° C. and then inoculated with 1 mL of the organism suspension. The inoculated agar was poured into the assay plate (9 cm in diameter) and allowed to cool down on a leveled surface."}, "M. bolletii 1999-0888": {"tested_on": "M. bolletii 1999-0888", "assay": "REMA MIC90, broad spectrum of microorganisms", "type": "cell-based", "conditions": "Mycobacteroides abscessus, 19990888, M. bolletii 1999-0888, Wild-type, read-out: MIC to Compound 2"}, "[3]": {"tested_on": "Pseudomonas aeruginosa PAO1", "assay": "REMA MIC90, broad spectrum of microorganisms", "type": "cell-based", "conditions": "Pseudomonas aeruginosa PAO1, in presence of efflux inhibitor, read-out: MIC to Compound 2"}, "M. bovis BCG Pasteur": {"tested_on": "M. bovis BCG Pasteur", "assay": "microbe, parasite or virus in culture", "type": "cell-based", "conditions": "Mycobacterium tuberculosis variant bovis BCG, read-out: MIC to Compound 2"}, "[4]": {"tested_on": "Staphylococcus aureus ATCC 25923", "assay": "REMA MIC90, broad spectrum of microorganisms", "type": "cell-based", "conditions": "ATCC25923, read-out: MIC to Compound 2"}, "M. tuberculosis H37Rv": {"tested_on": "M. tuberculosis H37Rv", "assay": "REMA MIC90, broad spectrum of microorganisms", "type": "cell-based", "conditions": "Mycobacterium tuberculosis, Wild-type, read-out: MIC to Compound 2"}, "[5]": {"assay": "Acute toxicity, intragastric administration in mice", "type": "in vivo, C57BL/6 male white mice", "conditions": "per os, doses lower than 300 mg/kg, 14 days observation", "method": "Acute and subacute toxicity of compound 2 was experimentally studied for intragastric administration in white mice. […] The compound was solubilized in saline to be administrated to animals.\nExperimental animals: 35 C57BL/6 male white mice, 7 weeks old, weight 20-22 g. The following experimental procedure was used: • administration route of the compound: per os; • number of doses: […]; • dosage: 100-200-250-300-500-600-750 mg/kg; • volume introduced into 0.3 ml/20 g (15 ml/kg); • data recorded: behavior, weight changes, rectal temperature, mortality."}, "[6]": {"type": "physicochemical", "conditions": "at a temperature of 20±3° C., from accelerated aging at 55±2° C.", "method": "The aim of the study is to investigate the physical and chemical properties of a substances at elevated temperature and to establish an experimental expiration date for the substances (saline form vs base form).\n• 5-(ethoxycarbonyl)pyridine-2-thiolate 1-oxide (base form) • sodium 5-(ethoxycarbonyl)pyridine-2-thiolate 1-oxide (compound 2—salt form)\n• Storage temperature: (55±2° C.)\nDouble layer polyethylene bag. The package is placed in a bag made of laminated aluminum foil. Each package is wrapped in wrapping paper. […]"}, "M. massiliense 2005-0524": {"tested_on": "M. massiliense 2005-0524", "assay": "REMA MIC90, broad spectrum of microorganisms", "type": "cell-based", "conditions": "Mycobacteroides abscessus, 20050524, M. massiliense 2005-0524, Wild-type, read-out: MIC to Compound 2"}, "Aspergillus niger": {"tested_on": "Aspergillus niger", "assay": "Antifungal agar well diffusion assay", "conditions": "20 μL water solution in 4 mm well", "protocol": "as §1"}, "[7]": {"tested_on": "Mycobacterium abscessus ATCC 19977", "assay": "REMA MIC90 against M. abscessus ATCC 19977", "type": "cell-based", "conditions": "Mycobacteroides abscessus, ATCC19977", "method": "Briefly, serial 2-fold dilutions of drug are prepared in 96-well microtiter plates (Fluoronunc, Thermo Fisher, Waltham, MA, USA) in 100 μL of Middlebrook 7H9 medium (Difco), supplemented with 10% OADC without addition of Tween 80. Then, M. abscessus log-phase cultures were diluted (OD600=0.02) and added in the 96-well microtiter plate. Growth controls containing no compound and sterile controls without inoculum are also included. […] After 1 day of incubation at 37° C., 10 μL of resazurin (0.025% w/v) is added to each well, and bacterial viability is assessed after a further 24 h of incubation using a Fluoroskan™ Microplate Fluorometer (Thermo Fisher Scientific, Waltham, MA, USA; excitation=544 nm, emission=590 nm). […] Results are expressed as the average of at least three independent replicates and presented on the following Table 1."}},
  "note": "Like-named read-outs stand apart in the source and are kept apart here.",
  "data": [
    {"smiles": "CCOC(=O)c1ccc([S-])[n+]([O-])c1.[Na+]", "note": "[Compound 2, Sodium 5-(ethoxycarbonyl)pyridine-2-thiolate 1-oxide]", "values": [
      {"measurement": "MIC", "setting": "[1]", "result": 500, "unit": "µg/mL"},
      {"measurement": "Inhibition Zone of Test Microorganism", "setting": "[2]", "result": 46, "unit": "mm"},
      {"measurement": "MIC", "setting": "M. bolletii 1999-0888", "result": 500, "unit": "µg/mL"},
      {"measurement": "MIC", "setting": "[3]", "result": 1000, "unit": "µg/mL"},
      {"measurement": "MIC", "setting": "M. bovis BCG Pasteur", "result": 62.5, "unit": "µg/mL"},
      {"measurement": "MIC", "setting": "[4]", "result": 8000, "unit": "µg/mL"},
      {"measurement": "MIC", "setting": "M. tuberculosis H37Rv", "result": 25, "unit": "µg/mL"},
      {"measurement": "Acute toxicity: animal death", "setting": "[5]", "result": "there were no cases of animal death"},
      {"measurement": "Acute toxicity: general state and behavior", "setting": "[5]", "result": "did not cause changes in the general state and behavior of the mice"},
      {"measurement": "Experimental shelf life", "setting": "[6]", "result": "about 2 years"},
      {"measurement": "MIC", "setting": "M. massiliense 2005-0524", "result": 500, "unit": "µg/mL"},
      {"measurement": "Inhibition Zone of Test Microorganism", "setting": "Aspergillus niger", "result": 28, "unit": "mm"},
      {"measurement": "MIC", "setting": "[7]; MIC90, REMA, Table 1, read-out: MIC in M. abscessus ATCC 19977", "result": 125, "unit": "µg/mL"},
      {"measurement": "MIC", "setting": "[7]; MIC90, M. abscessus ATCC 19977, Wild-type, Table 2, read-out: MIC to Compound 2", "result": 250, "unit": "µg/mL"}
    ]}
  ]
}
